From ChEMBL document CHEMBL1134101, “The cyclohexene ring as bioisostere of a furanose ring: synthesis and antiviral activity of cyclohexenyl nucleosides” (Bioorg Med Chem Lett, 2001)
In brackets after ≈: the same amount, converted by molar mass.

Columns and labels:
Cytomegalovirus [1] = assay: Tested for antiviral activity against HCMV (AD169); format: functional, organism-based, Human betaherpesvirus 5
Hepatitis B virus = assay: Tested for antiviral activity against HBV (Hep AD79); format: functional, organism-based
Human alphaherpesvirus 1 [2] = assay: Tested for antiviral activity against HSV-1 (KOS); format: functional, organism-based
Cytomegalovirus [3] = assay: Effective concentration required against HCMV AD169 for antiviral activity; format: functional, organism-based, Human betaherpesvirus 5
Human alphaherpesvirus 3 [4] = assay: Tested for antiviral activity against VZV (YS); format: functional, organism-based
Human alphaherpesvirus 3 [5] = assay: Tested for antiviral activity against VZV ([…]); format: functional, organism-based
Human alphaherpesvirus 2 = assay: Tested for antiviral activity against HSV-2 (G); format: functional, organism-based
Human alphaherpesvirus 1 [6] = assay: Tested for antiviral activity against HSV-1 (TK-KOS); format: functional, organism-based
Cytomegalovirus [7] = assay: Effective concentration required against HCMV strain for antiviral activity; format: functional, organism-based; conditions: Human betaherpesvirus 5
[8] = Hepatitis B virus, read-out: IC50
[9] = Human alphaherpesvirus 1, read-out: IC50
[10] = Human alphaherpesvirus 2, read-out: IC50
[11] = Human betaherpesvirus 5, read-out: EC50

IC50 (Cytomegalovirus [1]) [µg/mL] | IC50 (Hepatitis B virus) [µg/mL] | IC50 (Human alphaherpesvirus 1 [2]) [µg/mL] | EC50 (Cytomegalovirus [3]) [µg/mL] | IC50 (Human alphaherpesvirus 3 [4]) [µg/mL] | IC50 (Human alphaherpesvirus 3 [5]) [µg/mL] | IC50 (Human alphaherpesvirus 2) [µg/mL] | IC50 (Human alphaherpesvirus 1 [6]) [µg/mL] | IC50 (Hepatitis B virus; [8]) [µg/mL] | IC50 (Human alphaherpesvirus 1 [2]; [9]) [µg/mL] | IC50 (Human alphaherpesvirus 2; [10]) [µg/mL] | EC50 (Cytomegalovirus [3]; [11]) [µg/mL] | IC50 (Human alphaherpesvirus 1 [6]; [9]) [µg/mL] | EC50 (Cytomegalovirus [7]) [µg/mL] | IC50 (Cytomegalovirus [1]; Human betaherpesvirus 5, read-out: IC50) [µg/mL] | SMILES
0.6 (≈ 2.16 µM) | 3 (≈ 10.8 µM) | 0.002 (≈ 0.00721 µM) | 0.47 (≈ 1.7 µM) | 0.49 (≈ 1.77 µM) | 2.1 (≈ 7.57 µM) | 0.05 (≈ 0.18 µM) | 0.38 (≈ 1.37 µM) | – | – | – | – | – | – | – | Nc1nc(O)c2ncn(C3C=CC(CO)C(O)C3)c2n1 (stereo in doubt; form 1)
1.5 (≈ 5.41 µM) | – | – | 1.05 (≈ 3.79 µM) | 1.2 (≈ 4.33 µM) | 5.8 (≈ 20.9 µM) | – | 1.28 (≈ 4.62 µM) | 3 (≈ 10.8 µM) | 0.003 (≈ 0.0108 µM) | 0.07 (≈ 0.252 µM) | – | – | – | – | Nc1nc(O)c2ncn(C3C=CC(CO)C(O)C3)c2n1 (stereo in doubt; form 2)
– | – | – | – | – | – | – | – | > 50 | 0.01 (≈ 0.0444 µM) | 0.02 (≈ 0.0888 µM) | 16 (≈ 71 µM) | 9.6 (≈ 42.6 µM) | 16 (≈ 71 µM) | – | Nc1nc2c(ncn2COCCO)c(=O)[nH]1 [ACYCLOVIR]
– | – | – | – | – | – | – | – | 45 (≈ 176 µM) | 0.001 (≈ 0.00392 µM) | 0.002 (≈ 0.00784 µM) | 0.77 (≈ 3.02 µM) | 0.48 (≈ 1.88 µM) | – | 0.6 (≈ 2.35 µM) | Nc1nc2c(ncn2COC(CO)CO)c(=O)[nH]1 [GANCICLOVIR]
